# US20230286982A1, “PROTEASOME ENHANCERS AND USES THEREOF” (Board of Trustees of Michigan State University, priority 2020, published 2023)
# Entries after “also recorded” stand apart in the source; their conditions may differ.
# Columns and labels:
# [1] = molecular target: T1, human constitutive 20S proteasome (Homo sapiens, UniProt P25787+P25789); test: Fluorogenic peptide degradation 20S proteasome activity assay; format: biochemical; settings: for 20S proteasome activity (in words): 0-80 μM; for AC200 (concentration achieving a doubling of 20S activity): combination of the three fluorogenic substrates (CT-L, T-L, Casp-L)
# T1 construct: purchased Boston Biochem, Inc. (Cambridge, Mass.)
# Procedure: Fluorogenic peptide degradation 20S proteasome activity assay. Activity assays were carried out in a 100 μL reaction volume. Different concentrations (1-80 μM) of test compounds were added to a black flat/clear bottom 96-well plate containing 1 nM of human constitutive 20S proteasome, in 50 mM Tris-HCl at pH 7.8, 100 mM NaCl and allowed to incubate for 15 min at 37° C. Fluorogenic substrates were then added and the enzymatic activity measured at 37° C. on a SpectraMax M5e spectrometer by measuring the change in fluorescence unit per minute for 1 hour at 380-460 nm. The fluorescence units for the vehicle control were set at a 100%, and the ratio of drug-treated sample set to that of vehicle control was used to calculate the fold change in enzymatic activity. The fluorogenic substrates used were one of the following: Suc-LLVY-AMC (CT-L activity, 20 μM), Z-LLE-AMC (Casp-L activity, 20 μM), Boc-LRR-AMC (T-L activity, 40 μM) or a combination of the three substrates each at 6.67 μM.
# [2] = molecular target: T2, human constitutive 20S proteasome impaired by α-synuclein oligomer mixture (Homo sapiens, UniProt P25787+P25789); test: IDP oligomer inhibition in fluorogenic peptide degradation assay (α-synuclein oligomers); format: biochemical; settings: 1-10 μM, concentration dependent; CT-L substrate; 500 nM α-synuclein oligomers
# T2 construct: purchased Boston Biochem, Inc. (Cambridge, Mass.)
# Procedure: IDP oligomer Inhibition in fluorogenic peptide degradation assay. Assays were carried out in a 100 μL reaction volume. Different concentrations (1-10 μM) of test compounds were added to a black flat/clear bottom 96-well plate containing 1 nM of human constitutive 20S proteasome, in 50 mM Tris-HCl at pH 7.8 and allowed to incubate for 15 min at 37° C. Then, 1 μL of α-synuclein or amyloid beta oligomer mixture of was added to each sample to a final concentration of 500 nM for α-synuclein and 2.5 μM for amyloid beta. This mixture was then allowed to incubate again for 15 min at 37° C. Next, 10 μL of CT-L fluorogenic substrate was added to a final concentration of 20 μM. The enzymatic activity was measured at 37° C. on a SpectraMax M5e spectrometer by measuring the change in fluorescence unit per minute for 1 hour at 380-460 nm. The fluorescence units for the vehicle control were set at a 100%, and the ratio of drug-treated or just oligomer-treated samples to the vehicle control was used to calculate the relative enzymatic activity.
# [3] = molecular target: T3, human constitutive 20S proteasome impaired by amyloid beta oligomer mixture (Homo sapiens, UniProt P25787+P25789); test: IDP oligomer inhibition in fluorogenic peptide degradation assay (amyloid beta oligomers); format: biochemical; settings: 1-10 μM, concentration dependent; CT-L substrate; 2.5 μM amyloid beta
# T3 construct: purchased Boston Biochem, Inc. (Cambridge, Mass.)
# Procedure: Amylold beta aggregate preparation. Synthetic amyloid beta was purchased from Eurogentec. To remove preexisting aggregates, synthetic amyloid beta peptide was dissolved in 100% hexafluoroisopropanol (HFIP) and incubated at 37° C. for 2 h. The HFIP was removed and the remaining peptide films were stored at −80° C. until use. Aggregates were prepared by resuspending amyloid beta films with DMSO (50 μL per 1 mg of peptide), followed by addition of ultrapure H2O (800 μL) and rapid addition of 2 M Tris-base (10 μL) at pH 7.6. The solution was then vortexed for 5 seconds and allowed to incubate at room temperature for 5 minutes. The Amyloid beta mixture was then diluted to the desired concentration and used immediately.
# IDP oligomer Inhibition in fluorogenic peptide degradation assay. Assays were carried out in a 100 μL reaction volume. […] The enzymatic activity was measured at 37° C. on a SpectraMax M5e spectrometer by measuring the change in fluorescence unit per minute for 1 hour at 380-460 nm. The fluorescence units for the vehicle control were set at a 100%, and the ratio of drug-treated or just oligomer-treated samples to the vehicle control was used to calculate the relative enzymatic activity.
# [4] = molecular target: T4, purified human 20S proteasome (Homo sapiens, UniProt P25787+P25789); test: In vitro purified α-synuclein oligomer degradation assay (western blot); format: biochemical; settings: 24 hours incubation with 20S proteasome
# T4 construct: purchased Boston Biochem, Inc. (Cambridge, Mass.)
# Procedure: In vitro purified α-synuclein oligomer degradation assay (western blot). Digestion of α-synuclein oligomer mixture was carried out in a 50 μL reaction volume made of 50 mM Tris at pH 7.8; 0.33 μM α-synuclein oligomer mixture and 6.7 nM purified human 20S proteasome. Briefly, 20S proteasome was diluted to 7.58 nM in the reaction buffer. Fluspirilene or vehicle (1 μL of 50×stock or DMSO) were added to 44 μL of 7.58 nM 20S and incubated at 37° C. for 20 min. The substrate (5 μL of 3.3 μM synuclein oligomer mixture) was then added to the reaction mixture and incubated at 37° C. for 24 hours. The reactions were then quenched with concentrated SDS loading buffer. Samples were resolved on a 4-20% Tris-glycine SDS-PAGE and immunoblotted with mouse monoclonal anti α-synuclein IgG (1:2000) and anti-mouse HRP-linked IgG (1:2000). Blots were developed with ECL western reagent and imaged with an Azure Biosystems 3000 imager.
# [5] = system: A53T α-synuclein in transiently transfected HEK-293T cells; test: A53T α-synuclein digestion in HEK-293T cells; format: cell-based, human; settings: for accumulation of A53T α-synuclein protein: 10 or 30 μM, 8 hours, with cycloheximide 100 μg/mL, concentration dependent
# Procedure: Cell culture. Human embryonic kidney cells (HEK293T) were maintained in Dulbecco's modified Eagle's medium (DMEM) supplemented with 10% fetal bovine serum and 100 units/mL penicillin/streptomycin, at 37° C. with 5% CO2.
# Transient transfection of A53T α-synuclein plasmid Into HEK-293T cells. Cells were grown according using the methods stated above to ˜50-70% confluency. At this point plasmid prepared with Xfect transfection agent (prepared following manufacturers protocol) was added to the HEK-293 cells and incubated for 4 hours. The media was then replaced with fresh culture media and the cells were returned to the incubator for 24 hours prior to treatment.
# A53T α-synuclein digestion in HEK-293T cells. HEK-293T cells were transfected as described above and incubated for 24 hours. The cells were then treated with 100 μg/mL of cycloheximide, in combination with either vehicle (DMSO), fluspirilene (10 or 30 μM), N-acylated fluspirilene (10 or 30 μM), bortezomib (100 nM), or a combination thereof for 8 hours. The cells were then lysed using RIPA buffer and the manufacturers protocol. A BCA assay was performed to quantify protein levels and the lysates were normalized to desired concentrations prior to electrophoresis and western blot analysis, performed as described previously.
# [6] = molecular target: 26S proteasome (Homo sapiens, UniProt P25787+P25789); test: Proteolysis of fluorogenic peptide substrates by purified 26S proteasome; format: biochemical; settings: 0-80 μM
# Procedure: FIG. 1A is a plot showing the rate of proteolysis of fluorogenic peptide substrates by purified 20S and 26S proteasome in the presence of a concentration response (0-80 μM) of fluspirilene. […] Error bars denote standard deviation.
# The small molecule antipsychotic drug fluspirilene was identified as a promising new scaffold for the development of 20S activators due to its strong enhancement of 20S proteolysis. To assess fluspirilene's 20S proteasome activity, a series of assays were performed using each of three fluorogenic peptide substrates. These substrates were a chymotryptic-like (CT-L), a trypsin-like (T-L) and a caspase-like (Casp-L) substrate, one for each of the catalytic sites of the proteasome. It has been shown that the proteasome's active sites allosterically regulate each other in the presence of their individual substrates. Therefore, a combination of the three probes to represent the overall activity of a 20S activator more accurately in a system in which all catalytic sites are interacting.
# [7] = molecular target: dopamine D2 receptor (Homo sapiens, UniProt P14416); settings: cited from earlier work
# [8] = combination of the three catalytic site substrates
# dopamine D2 receptor, sequence (P14416 whole entry, species assumed): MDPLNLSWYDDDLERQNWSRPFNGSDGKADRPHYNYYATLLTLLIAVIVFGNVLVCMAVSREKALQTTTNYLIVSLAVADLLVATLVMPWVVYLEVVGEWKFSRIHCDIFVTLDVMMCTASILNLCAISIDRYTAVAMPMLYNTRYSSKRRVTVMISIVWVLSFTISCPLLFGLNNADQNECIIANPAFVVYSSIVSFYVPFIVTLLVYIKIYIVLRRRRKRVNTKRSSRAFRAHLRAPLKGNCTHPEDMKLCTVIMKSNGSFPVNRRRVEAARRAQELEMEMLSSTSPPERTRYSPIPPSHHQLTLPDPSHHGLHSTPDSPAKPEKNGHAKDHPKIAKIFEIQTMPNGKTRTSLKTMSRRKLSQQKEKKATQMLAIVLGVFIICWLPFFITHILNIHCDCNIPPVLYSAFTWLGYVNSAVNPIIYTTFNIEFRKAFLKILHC
SMILES,"20S proteasome activity (in words) [1, 8]","maximum fold enhancement [1, 8] [%]",AC200 (concentration achieving a doubling of 20S activity) [1] [µM],"max fold increases, increase over vehicle ([1]; for each substrate/combination) [%]",activation of the CT-L site relative to fluspirilene ([1]; individual CT-L fluorescent peptide probe),AC200 at the CT-L site ([1]; individual CT-L substrate (Suc-LLVY-AMC)) [µM],AC200 at the Casp-L site ([1]; individual Casp-L substrate (Z-LLE-AMC)) [µM],activation of the T-L site relative to fluspirilene ([1]; individual T-L fluorescent peptide probe),prevention of 20S impairment by α-syn oligomers [2],prevention of 20S impairment by amyloid beta oligomers [3],remaining α-syn oligomers relative to vehicle control [4],accumulation of A53T α-synuclein protein [5],effect on A53T α-synuclein when proteasome activity is blocked ([5]; in combination with bortezomib (100 nM)),"activation of the catalytic sites of the 20S proteasome ([1]; CT-L, T-L and Casp-L substrates)","maximum fold enhancement ([1]; combination of probes, over vehicle control) [fold]",enhancement of the proteolytic activity of the 26S proteasome [6],dopamine D2 receptor antagonism [7]
O=C1NCN(c2ccccc2)C12CCN(CCC=C(c1ccc(F)cc1)c1ccc(F)cc1)CC2 [Compound 11],lessened activity; also recorded: moderate activity,–,–,–,–,–,–,–,–,–,–,–,–,–,–,–,–
O=C(CCC(c1ccc(F)cc1)c1ccc(F)cc1)N1CCC2(CC1)C(=O)NCN2c1ccccc1 [Compound 16],promising; also recorded: excellent activity,> 2000,1.9,> 1500,reduced activation,4.7,4.1,better activation,prevented 20S impairment,prevented 20S impairment,reduction in overall α-syn oligomers,effectively reduced the accumulation,abrogated,–,–,–,–
"O=C1NCN(c2ccccc2)C12CCN(CCCC(c1ccc(F)cc1)c1ccc(F)cc1)CC2 [Fluspirilene, fluspirilene, reference compound]",promising,–,2.2,–,–,–,–,–,prevented 20S impairment,prevented 20S impairment,reduction in overall α-syn oligomers,effectively reduced the accumulation,–,activates all three catalytic sites,~10,did not enhance,potent
